Experiment [1] has as its system KA-induced epilepsy model in rats. Briefly: kainic acid (KA)-induced seizure behavior in rats, Racine scale scoring (seizure score and latency). The class given is in vivo, Sprague-Dawley rats. An excerpt:
Experimental animals are as follows. Male Sprague-Dawley rats (weight 200-250 g) purchased from BioLASCO in Taipei were housed in the Animal Center of Fu Jen Catholic University and maintained in a 12-h light/dark cycle with food and water available ad libitum. Rats were allowed to acclimate to laboratory conditions for at least 3 days before the start of the experiment.
The experimental design of the present invention is as follows. Cynarin pretreatment reduces epileptic behavior in animals induced by kainic acid (KA). […] Behavioral scoring was based on the Racine scale (1972), see FIG. 1.
Experimental grouping is as follows. […]
The experimental protocol for Racine scale behavioral scoring is as follows. The rats' epileptic seizure activity was continuously monitored for 3 hours, and epileptic behavior was scored according to the 1972 Racine scale. […]
Statistical analysis is as follows. […] Data are expressed as mean±standard error (SEM). Statistical significance was determined by one-way analysis of variation (ANOVA), combined with Bonferroni's post hoc test, and a p-value less than 0.05 was used as the criterion for significant differences.
The rats were pretreated either with normal saline (control), or CYN (0.5-25 mg/kg/day, p.o.), or CBZ (50 or 100 mg/kg/day, p.o.) or CYN 5 mg/kg/day+CBZ 50 mg/kg/day (p.o.) for 7 days before KA injection (15 mg/kg, i.p.). […] Data are expressed as mean±SEM. […]

In experiment [2] the test system is hippocampal CA1/CA3 nerve cells of KA-treated rats. The experiment in a line: NeuN staining of hippocampal CA1/CA3 nerve cells in KA-treated rats. Type of experiment: in vivo. As to conditions: Cynarin 10 mg/kg p.o. once daily for 7 days before KA 15 mg/kg i.p.; NeuN staining 72 h after KA. The protocol: In this example, rats were divided into four groups: a control group, a KA-only (15 mg/kg) treatment group, a Cynarin (CYN) (10 mg/kg) plus KA (15 mg/kg) treatment group, and a triple treatment group consisting of Cynarin (CYN) (5 mg/kg), Carbamazepine (CBZ) (50 mg/kg), and KA (15 mg/kg). During the experiment, except for the control group, rats in each group were administered Cynarin orally once daily for seven days. Then, on the eighth day, all experimental groups, except the control group, were further treated by intraperitoneal injection of KA (15 mg/kg).
FIGS. 3A and 3B show the effect of Cynarin (CYN) pretreatment on kainic acid (KA)-induced nerve cell death in the hippocampus of rats. (3A) Representative images of Neuronal nuclei (NeuN) staining at 72 h after KA i.p. injection. (3B) Semiquantitative analysis of NeuN-positive cells in the CA1 and CA3 regions. Data are mean±SEM (n=5 per group). ***, p<0.001 vs. control group. #, p<0.001 vs. KA group.

In the case of `O=C(/C=C/c1ccc(O)c(O)c1)O[C@@H]1C[C@@](OC(=O)/C=C/c2ccc(O)c(O)c2)(C(=O)O)C[C@@H](O)[C@@H]1O` [CYN, Cynarin], in experiment [1] (CYN 0.5 mg/kg/day p.o. for 7 days before KA 15 mg/kg i.p., rats observed 3 h), the “effect on KA-induced epilepsy (seizure score and latency)” value was “did not affect the epilepsy induced by KA”. The “inhibitory effect on epileptic seizure behavior” value in experiment [1] (CYN 10 mg/kg/day p.o. for 7 days before KA 15 mg/kg i.p., compared with CYN 5 and 25 mg/kg, equivalent to CBZ 100 mg/kg) is “strongest inhibitory effect on epileptic seizure behavior in animals”. In experiment [2], the “KA-induced reduction of the number of hippocampal CA1/CA3 nerve cells (NeuN-positive cells)” value is reported as “can also be reduced”.

The record behind these values is US20250302791A1, “METHOD FOR TREATING AND/OR PREVENTING EPILEPSY AND REDUCING SIDE EFFECT OF ANTI-EPILEPTIC DRUG BY USING CYNARIN” (FU JEN CATHOLIC UNIVERSITY, priority 2024, published 2025).
